Experimental data reported in US12516049B2, “Sulfonylurea ring substituted monocyclic β-lactam antibiotics” (priority 2019, dated 2026).

Columns and labels:
E.coli 115103 = test: MIC, two-fold agar dilution, clinical isolate; assay type: cell-based; conditions: Escherichia coli; E.coli 115103; single drug; average of three tests; read-out: MIC
Description: (§1) The minimum inhibitory concentration (MIC) of the compound and combination with β-lactamase (MBLs) inhibitors against clinically isolated carbapenem-resistant enterobacteriaceae was determined by the two-fold agar dilution method to determine the activity of the compound to be tested against strains producing MBLs. Antibiotics and enzyme inhibitors were weighed separately and dissolved in sterile ultrapure water or dimethyl sulfoxide to prepare mother liquor, MHA medium was prepared, pH was adjusted to 7.2-7.4, and it was sterilized at 121° C. for 15 minutes and placed in a 55° C. water bath for heat preservation. The mother liquor was diluted to the concentration to be tested by double dilution method, an inoculum liquid was prepared by direct bacterial suspension method, 1 mL of the prepared bacteria solution was withdrawn and putted into the inoculation tube, and a positioning needle and an inoculation needle were installed. A bacterial multi-point inoculator was started for inoculation. After the bacterial solution was absorbed by the agar, the plate was placed upside down in an incubator at 37° C. for 16-20 hours, and the results were observed. The average of three tests was taken.

K.p HX37 = test: MIC, two-fold agar dilution, clinical isolate; assay type: cell-based; conditions: K.p HX37; single drug; average of three tests; read-out: MIC
Description: as §1

E.coli CRE23 = test: MIC, two-fold agar dilution, clinical isolate; assay type: cell-based; conditions: Escherichia coli; E.coli CRE23; single drug; average of three tests; read-out: MIC
Description: as §1

K.p C904 = test: MIC, two-fold agar dilution, clinical isolate; assay type: cell-based
Description: as §1

E.coli 020033 = test: MIC, two-fold agar dilution, clinical isolate; assay type: cell-based; conditions: Escherichia coli, single drug, average of three tests
Description: as §1

K.p HX77 = test: MIC, two-fold agar dilution, clinical isolate; assay type: cell-based; conditions: single drug, average of three tests
Description: as §1

K.p 6777 = test: MIC, two-fold agar dilution, clinical isolate; assay type: cell-based
Description: as §1

K.p 11544 = test: MIC, two-fold agar dilution, clinical isolate; assay type: cell-based; conditions: K.p 11544; single drug; average of three tests; read-out: MIC
Description: as §1

K.p 115004 = test: MIC, two-fold agar dilution, clinical isolate; assay type: cell-based
Description: as §1

[1] = test system: Klebsiella pneumoniae ATCC-BAA 2470; test: Mouse thigh muscle infection model, Klebsiella pneumoniae ATCC-BAA 2470; assay type: in vivo; conditions: immunodeficient female CD-1 mice; Klebsiella pneumoniae ATCC-BAA 2470 9.5E+06 CFU/mouse; 200 mg/kg every 2 h from 2 h; end point 24 h
Description: 15 female CD-1 mice were divided into 5 cages, 3 mice per cage; the day of infection was counted as day 0.
Immunosuppressant cyclophosphamide 150 mg/kg were injected intraperitoneally on Day-4, and immunosuppressant cyclophosphamide 100 mg/kg was injected intraperitoneally again on the first day to obtain immunodeficient mice.
The strain Klebsiella pneumoniae ATCC-BAA 2470 was recovered on an MHA plate on the first day. The recovered colonies were picked and dissolved in sterile saline to prepare bacterial solution with a concentration of 9.5E+07 CFU/mL for use in mouse thigh muscle infection. The infection starting time was counted as 0 h, and 100 μL of bacterial solution is injected into the thigh muscle of each mouse at 0 h, that is, the inoculation amount is 9.5E+06 CFU/mouse. 2 h after infection, the drugs were administered according to the experimental scheme. The specific experimental scheme is as follows (see Table 5): […]
(2) 2 h after infection: Mice in the second to third cages were administered separately at a volume of 10 mL/kg according to the mouse body weight. […] The amount of bacteria loaded in the thigh muscle tissue of the mouse was counted, and the experimental results were shown in Table 6.

**Q.** Which MIC (E.coli 115103) does the source give for `NC[C@@H]1CN(C[C@@H]2[C@H](NC(=O)/C(=N\OC3(C(=O)O)CC3)c3csc(N)n3)C(=O)N2S(=O)(=O)O)S(=O)(=O)N1` [Compound 4] here?
**A.** 1 µg/mL

**Q.** And the MIC (K.p HX37)?
**A.** 0.25 µg/mL

**Q.** And the MIC (E.coli CRE23)?
**A.** 1 µg/mL

**Q.** What about the MIC (K.p C904) of the same molecule?
**A.** 0.125 µg/mL

**Q.** And the MIC (E.coli 020033)?
**A.** 1 µg/mL

**Q.** What about the MIC (K.p HX77) of the same molecule?
**A.** 0.03 µg/mL

**Q.** And the MIC (K.p 6777)?
**A.** 0.125 µg/mL

**Q.** And the MIC (K.p 11544)?
**A.** 0.06 µg/mL

**Q.** What about the MIC (K.p 115004) of the same molecule?
**A.** 0.125 µg/mL

**Q.** What about the “Average CFU of the mouse (amount of bacteria loaded in thigh muscle tissue)” value [1] of the same molecule?
**A.** 3.93E+06 CFU/mouse
